Results: patent publication US11370774B2, “Substituted benzofuran, benzopyrrole, benzothiophene, and structurally related complement inhibitors” (BioCryst Pharmaceuticals, Inc., priority 2018, dated 2022)

target: Factor D (Homo sapiens (Human), UniProt P00746); assay: Factor D esterolytic assay (Z-Lys-SBzl substrate, DTNB, 405 nm); format: biochemical; conditions: Z-Lys-SBzl 1.29 mM, pH 7.5, 10% DMSO, tested a minimum of three times, read-out: Measured Ki (IC50) Value for Compounds: IC50
Method in brief: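 Thioester hydrolysis (Z-Lys-SBzl, 1.29 mM) by human Factor D ([…]) detected through DTNB color at 405 nm over 600 sec, minus 690 nm background. Buffer: 100 mM HEPES pH 7.5, 500 mM NaCl, 10% DMSO; optional room-temperature preincubation before substrate. IC50 derived from percent rate inhibition; at least three runs.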

Sequence of Factor D (P00746 26-253): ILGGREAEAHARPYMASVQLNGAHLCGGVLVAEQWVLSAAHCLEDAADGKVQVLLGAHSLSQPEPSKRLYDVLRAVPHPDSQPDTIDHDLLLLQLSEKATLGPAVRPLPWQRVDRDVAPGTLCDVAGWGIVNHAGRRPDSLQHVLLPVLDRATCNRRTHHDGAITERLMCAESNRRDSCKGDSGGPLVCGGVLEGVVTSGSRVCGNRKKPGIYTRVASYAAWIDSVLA

`COCCOCCOCCOCc1cc2cc(COc3ccccc3CC(=O)O)cc(-c3cccc(CN)c3)c2o1` [Compound 344f, 2-(2-((7-(3-(aminomethyl)phenyl)-2-(2,5,8,11-tetraoxadodecyl)benzofuran-5-yl)methoxy)phenyl)acetic acid] and `CN(C)Cc1cc2cc(COc3ccccc3CC(=O)O)cc(-c3cccc(CN)c3)c2o1` [Compound 141c, 2-(2-((7-(3-(aminomethyl)phenyl)-2-((dimethylamino)methyl)benzofuran-5-yl)methoxy)phenyl)acetic acid] cannot be ordered by IC50: < 1000 nM for the first, < 1000 nM for the second.

`Cc1cc(CC(=O)O)c(OCc2cc(-c3ccnc(CN)c3F)c3occc3c2)cc1C` [Compound 430c, 2-(2-((7-(2-(aminomethyl)-3-fluoropyridin-4-yl)benzofuran-5-yl)methoxy)-4,5-dimethylphenyl)acetic acid] and `COCc1cc2cc(COc3cc(OC)ccc3CC(=O)O)cc(-c3ccnc(CN)c3F)c2o1` [Compound 471d, 2-(2-((7-(2-(aminomethyl)-3-fluoropyridin-4-yl)-2-(methoxymethyl)benzofuran-5-yl)methoxy)-4-methoxyphenyl)acetic acid] cannot be ordered by IC50: < 1000 nM for the first, < 1000 nM for the second.

`NCc1cccc(-c2cc(NC(=O)N3CCC[C@H]3C(=O)NCc3cccc(Cl)c3F)cc3ccoc23)c1` [Compound 418c, (S)—N1-(7-(3-(aminomethyl)phenyl)benzofuran-5-yl)-N2-(3-chloro-2-fluorobenzyl)pyrrolidine-1,2-dicarboxamide] and `NCc1cccc(-c2cc(CC(=O)N3CCC[C@H]3C(=O)NCc3cccc(Cl)c3F)cc3ccoc23)c1` [Compound 277e, (S)-1-(2-(7-(3-(aminomethyl)phenyl)benzofuran-5-yl)acetyl)-N-(3-chloro-2-fluorobenzyl)pyrrolidine-2-carboxamide] cannot be ordered by IC50: < 1000 nM for the first, < 1000 nM for the second.

`NCc1cccc(-c2cc(COc3ccccc3CC(=O)O)cc3ccoc23)c1O` [Compound 248c, 2-(2-((7-(3-(aminomethyl)-2-hydroxyphenyl)benzofuran-5-yl)methoxy)phenyl)acetic acid] and `NCc1cccc(-c2cc(COc3ccccc3CC(=O)O)cc3ccoc23)c1F` [Compound 56c, 2-(2-((7-(3-(aminomethyl)-2-fluorophenyl)benzofuran-5-yl)methoxy)phenyl)acetic acid] cannot be ordered by IC50: < 1000 nM for the first, < 1000 nM for the second.

`NCc1cccc(-c2cc(CC(=O)N3[C@@H]4C[C@@H]4C[C@H]3C(=O)NCc3cccc(Cl)c3F)cc3ccoc23)c1` [Compound 273g, (1R,3S,5R)-2-(2-(7-(3-(aminomethyl)phenyl)benzofuran-5-yl)acetyl)-N-(3-chloro-2-fluorobenzyl)-2-azabicyclo[3.1.0]hexane-3-carboxamide] and `NCc1cccc(-c2cc(C(=O)N[C@@H]3CCC[C@H]3C(=O)NCc3cccc(Cl)c3F)cc3ccoc23)c1` (relative stereo) [Compound 376e, 7-(3-(aminomethyl)phenyl)-N-((trans)-2-((3-chloro-2-fluorobenzyl)carbamoyl)cyclopentyl)benzofuran-5-carboxamide] cannot be ordered by IC50: < 1000 nM for the first, < 1000 nM for the second.

`CCOC(=O)Cc1ccccc1NC(=O)c1nc(-c2cccc(CN)c2)c2cccn2n1` [Compound 5g, ethyl 2-(2-(4-(3-(aminomethyl)phenyl)pyrrolo[2,1-f][1,2,4]triazine-2-carboxamido)phenyl)acetate] and `NCc1cccc(-c2nc(C(=O)Nc3ccccc3CC(=O)O)c3cccn3n2)c1` [Compound 1h, 2-(2-(2-(3-(aminomethyl)phenyl)pyrrolo[2,1-f][1,2,4]triazine-4-carboxamido)phenyl)acetic acid] cannot be ordered by IC50: < 1000 nM for the first, < 1000 nM for the second.

First: NCc1cccc(-c2nc(C(=O)Nc3ccccc3CC(=O)O)c3ccc(CN4CCCC4)n3n2)c1 [Compound 46g, 2-(2-(2-(3-(aminomethyl)phenyl)-7-(pyrrolidin-1-ylmethyl)pyrrolo[2,1-f][1,2,4]triazine-4-carboxamido)phenyl)acetic acid]
Second: COc1ccc(CC(=O)O)c(NC(=O)c2nc(-c3cccc(CN)c3)nn3cccc23)c1 [Compound 42d, 2-(2-(2-(3-(aminomethyl)phenyl)pyrrolo[2,1-f][1,2,4]triazine-4-carboxamido)-4-methoxyphenyl)acetic acid]
The IC50 of the first is higher: 1000 to 10000 nM for the first, < 1000 nM for the second. The second is the more potent here.

`CC(C)n1ccc2c(-c3ccnc(CN)c3F)cc(COc3ccc(F)cc3CC(=O)O)cc21` [Compound 513c, 2-(2-((4-(2-(aminomethyl)-3-fluoropyridin-4-yl)-1-isopropyl-1H-indol-6-yl)methoxy)-5-fluorophenyl)acetic acid] and `CC(C)n1ccc2c(-c3cccc(CN)c3)cc(COc3cc(F)ccc3CC(=O)O)cc21` [Compound 449c, 2-(2-((4-(3-(aminomethyl)phenyl)-1-isopropyl-1H-indol-6-yl)methoxy)-4-fluorophenyl)acetic acid] cannot be ordered by IC50: < 1000 nM for the first, < 1000 nM for the second.

`CC(C)c1cc2cc(COc3ccccc3CC(=O)O)cc(-c3cccc(CN)c3)c2o1` [Compound 108f, 2-(2-((7-(3-(aminomethyl)phenyl)-2-isopropylbenzofuran-5-yl)methoxy)phenyl)acetic acid] and `CC(=O)c1cc2cc(COc3ccccc3CC(=O)O)cc(-c3cccc(CN)c3)c2o1` [Compound 252d, 2-(2-((2-acetyl-7-(3-(aminomethyl)phenyl)benzofuran-5-yl)methoxy)phenyl)acetic acid] cannot be ordered by IC50: < 1000 nM for the first, < 1000 nM for the second.

`NCc1nccc(-c2cc(COc3ccccc3CC(=O)O)cc3c2ccn3CC2CC2)c1F` [Compound 170b, 2-(2-((4-(2-(aminomethyl)-3-fluoropyridin-4-yl)-1-(cyclopropylmethyl)-1H-indol-6-yl)methoxy)phenyl)acetic acid] and `NCc1nccc(-c2cc(COc3ccccc3CC(=O)O)cc3ccsc23)c1F` [Compound 431c, 2-(2-((7-(2-(aminomethyl)-3-fluoropyridin-4-yl)benzo[b]thiophen-5-yl)methoxy)phenyl)acetic acid] cannot be ordered by IC50: < 1000 nM for the first, < 1000 nM for the second.

`NCc1cc(-c2c(F)c(COc3ccccc3CC(=O)O)cc3ccoc23)ccn1` [Compound 519c, 2-(2-((7-(2-(aminomethyl)pyridin-4-yl)-6-fluorobenzofuran-5-yl)methoxy)phenyl)acetic acid] and `Cn1ccc2c(-c3ccnc(CN)c3)cc(COc3ccccc3CC(=O)O)cc21` [Compound 133c, 2-(2-((4-(2-(aminomethyl)pyridin-4-yl)-1-methyl-1H-indol-6-yl)methoxy)phenyl)acetic acid] cannot be ordered by IC50: < 1000 nM for the first, < 1000 nM for the second.

`N[C@H](CO)c1cccc(-c2cc(COc3ccccc3CC(=O)O)cc3ccoc23)c1F` [Compound 67c, (S)-2-(2-((7-(3-(1-amino-2-hydroxyethyl)-2-fluorophenyl)benzofuran-5-yl)methoxy)phenyl)acetic acid] and `N=C(N)c1cccc(-c2cc(COc3ccccc3CC(=O)O)cc3ccoc23)c1` [Compound 85c, 2-(2-((7-(3-carbamimidoylphenyl)benzofuran-5-yl)methoxy)phenyl)acetic acid] cannot be ordered by IC50: < 1000 nM for the first, < 1000 nM for the second.

Compared with `Nc1ccc2c(-c3cc(COc4ccccc4CC(=O)O)cc4ccoc34)ncnn12` [Compound 204e, 2-(2-((7-(7-aminopyrrolo[2,1-f][1,2,4]triazin-4-yl)benzofuran-5-yl)methoxy)phenyl)acetic acid], `NCc1cccc(-c2cc(COc3ccc4ccccc4c3CC(=O)O)cc3ccoc23)c1` [Compound 400e, 2-(2-((7-(3-(aminomethyl)phenyl)benzofuran-5-yl)methoxy)naphthalen-1-yl)acetic acid] is lower in IC50: > 10000 nM for the first, < 1000 nM for the second. The second is the more potent here.

Compared with `NCc1cccc(-c2cc(NC(=O)[C@H]3CCCN3CC(=O)O)cc3ccoc23)c1` [Compound 408e, (R)-2-(2-((7-(3-(aminomethyl)phenyl)benzofuran-5-yl)carbamoyl)pyrrolidin-1-yl)acetic acid], `Cc1cccc(CC(=O)O)c1NC(=O)c1cc(-c2cccc(CN)c2)c2occc2c1` [Compound 165f, 2-(2-(7-(3-(aminomethyl)phenyl)benzofuran-5-carboxamido)-3-methylphenyl)acetic acid] is lower in IC50: > 10000 nM for the first, < 1000 nM for the second.

`NCc1cccc(-c2cc(COc3ccccc3CC(=O)O)cc3ccsc23)c1F` [Compound 247b, 2-(2-((7-(3-(aminomethyl)-2-fluorophenyl)benzo[b]thiophen-5-yl)methoxy)phenyl)acetic acid] and `NCc1cccc(-c2cc(COc3ccccc3CC(=O)O)cc3oc(Cl)cc23)c1F` [Compound 24b, 2-(2-((4-(3-(aminomethyl)-2-fluorophenyl)-2-chlorobenzofuran-6-yl)methoxy)phenyl)acetic acid] cannot be ordered by IC50: < 1000 nM for the first, < 1000 nM for the second.

`NCc1cccc(-c2cc(COc3cc(F)ccc3CC(=O)O)cc3cc(F)oc23)c1F` [Compound 521b, 2-(2-((7-(3-(aminomethyl)-2-fluorophenyl)-2-fluorobenzofuran-5-yl)methoxy)-4-fluorophenyl)acetic acid] and `COCc1cc2cc(COc3cc(CN)ccc3CC(=O)O)cc(-c3cccc(CN)c3)c2o1` [Compound 445c, 2-(4-(aminomethyl)-2-((7-(3-(aminomethyl)phenyl)-2-(methoxymethyl)benzofuran-5-yl)methoxy)phenyl)acetic acid] cannot be ordered by IC50: < 1000 nM for the first, < 1000 nM for the second.

`Cc1ccc(CC(=O)O)c(OCc2cc(-c3cccc(CN)c3)c3ccn(C)c3c2)c1` [Compound 358c, 2-(2-((4-(3-(aminomethyl)phenyl)-1-methyl-1H-indol-6-yl)methoxy)-4-methylphenyl)acetic acid] and `Cc1oc2c(-c3cccc(CN)c3)cc(COc3ccccc3CC(=O)O)cc2c1Br` [Compound 425f, 2-(2-((7-(3-(aminomethyl)phenyl)-3-bromo-2-methylbenzofuran-5-yl)methoxy)phenyl)acetic acid] cannot be ordered by IC50: < 1000 nM for the first, < 1000 nM for the second.

`CN(C)c1nc2cc(C(=O)Nc3ccccc3CC(=O)O)cc(-c3cccc(CN)c3)c2o1` [Compound 61f, 2-(2-(7-(3-(aminomethyl)phenyl)-2-(dimethylamino)benzo[d]oxazole-5-carboxamido)phenyl)acetic acid] was tested, and the IC50 was 1000 to 10000 nM.
